Measured values: patent publication US7550624B2, “Pharmaceutically active salts and esters of 1-dimethylamino-3-(3-methoxyphenyl)-2-methylpentan-3-ol and 3- (3-dimethylamino-1-ethyl-1-hydroxy-2-methylpropyl)-phenol and methods of using same” (Gruenenthal GmbH, priority 2002, dated 2009)
Marks after values point to notes of the source that are not given here.

System: female Sprague-Dawley rats
Experiment: Cystometry tests on conscious fresh rats
Type: in vivo, rat
Conditions: for effect on the bladder regulation (in words): iv, cystometric parameters
Protocol: Cystometry investigations were carried out on fresh female Sprague-Dawley rats according to the method of Ishizuka et. al. ((1997), Naunyn-Schmiedeberg's Arch. Pharmacol. 355: 787-793). Three days after implantation of bladder and venous catheters the animals were investigated in the conscious state while freely moving. The bladder catheter was connected to a pressure gauge and an injection pump. The animals were placed in metabolic cages that enable the volume of urine to be measured. Physiological saline solution was infused (10 ml/hour) into the emptied bladder and the bladder pressure and volume of urine were continuously recorded. After a stabilisation phase a 20-minute phase was recorded that was characterised by normal, reproducible micturition cycles. The following parameters among others were measured: • threshold pressure TP, bladder pressure immediately before micturition, • bladder capacity BC, residual volume after prior micturition plus volume of infused solution during the filling phase, • intercontraction interval ICI, i.e. the time interval between consecutive micturition.
An increase in the threshold pressure (TP) indicates an important therapeutic effect in one of the medical conditions covered by the invention. Also, the intercontraction interval (ICI) is an important parameter for measuring the physiological effectiveness of a substance in the treatment of urinary incontinence, as is the bladder capacity (BC). In this connection, on account of the widely differing causes of the symptoms of these disease patterns it is not necessary to influence positively all three parameters in order for a medicament to be effective.
After recording three reproducible micturition cycles to provide a baseline value, the test substances 1 (1.0 mg/kg), 2 (0.1; 0.3 and 0.5 mg/kg), 21 (0.5 mg/kg) and 7 (0.3 mg/kg) in a vehicle comprising 0.9% NaCl were applied intravenously and the effect on the cystometric parameters was recorded at 90 to 120 minutes. In the effect maximum the mean value of 3 micturition cycles was determined and recorded as a percentage change compared to the baseline value (Table 1).

[1] = 0.3 mg/kg iv, effect maximum, mean of 3 micturition cycles
[2] = 0.5 mg/kg iv, effect maximum, mean of 3 micturition cycles

SMILES | BC Bladder Capacity (change compared to the baseline value) (1.0 mg/kg iv, effect maximum, mean of 3 micturition cycles) | BC Bladder Capacity (change compared to the baseline value) [1] | ICI Inter-Contraction Interval (change compared to the baseline value) [1] | BC Bladder Capacity (change compared to the baseline value) (0.1 mg/kg iv, effect maximum, mean of 3 micturition cycles) | BC Bladder Capacity (change compared to the baseline value) [2] | effect on the bladder regulation (in words) | TP Threshold Pressure (change compared to the baseline value) [2] [%**]
CC[C@](O)(c1cccc(OC)c1)[C@H](C)CN(C)C.Cl (racemic) [Compound 1, (2RS,3RS)-1-dimethylamino-3-(3-methoxyphenyl)-2-methylpentan-3-ol, hydrochloride] | +31%** | – | – | – | – | – | –
CCC(O)(c1cccc(O)c1)C(C)CN(C)C.Cl (racemic) [Compound 7, (2RS,3RS)-3-(3-dimethylamino-1-ethyl-1-hydroxy-2-methylpropyl)-phenol, hydrochloride] | – | +32%** | +2%* | – | – | – | –
CC[C@](O)(c1cccc(OC)c1)[C@H](C)CN(C)C.Cl [Compound 2, (+)-(2R,3R)-1-dimethylamino-3-(3-methoxyphenyl)-2-methylpentan-3-ol, hydrochloride] | – | +33%** | – | +7.8%** | +20.6%** | very effective | –
CC[C@@](O)(c1cccc(OC)c1)[C@@H](C)CN(C)C.Cl [Compound 21, (−)-(2S,3S)-1-dimethylamino-3-(3-methoxyphenyl)-2-methylpentan-3-ol, hydrochloride] | – | – | – | – | +3%** | does not exhibit such a marked effect | −1.1
